In US11801249B1, “Broad-spectrum antitrypanosomal compounds” (KING FAISAL UNIVERSITY, priority 2023, dated 2023):
Values after ≈ are worked out from the molar mass of the structure shown. Blank lines part the entries; values can stand above or below the molecule they belong to.

How the values were obtained:
Test in all cases: Antitrypanosomal assay (ATP-based luciferase viability)
Assay type in all cases: cell-based
[1] = tested on: T. b. brucei (Tbb) GuTat3.1; settings: Trypanosoma brucei, TbbGUTat3.1, mean ± SD; for IC50: 72 h, three days; for inhibition at 0.25 µg/mL: 0.25 μg/ml; for inhibition at 0.25 µg/mL / inhibition at 25 µg/mL: read-out: Inhibition rate; for inhibition at 25 µg/mL: 25 μg/ml
From the text: (§1) Six trypanosome species namely T. b. brucei (Tbb) GuTat3.1, T. b. rhodesiense (Tbr) IL1501, T. b. gambiense (Tbg) IL1922, T. evansi (Tev) Tansui, T. equiperdum (Teq) IVM-t1 and T. congolense (Tc) IL3000 were cultivated using HMI-9 medium and used in the study. Following the procedures reported in Suganuma et al. (2014): “Establishment of ATP-based luciferase viability assay in 96-well plate for Trypanosoma congolense”, J Vet Med Sci 76, 1437-41, the trypanocidal activity of the two compounds discussed herein was assessed at 25 μg/ml or […]. […] The IC50 of the compounds against six trypanosome species was determined using serial dilution in a 96-well plate (Optical bottom plate, ThermoFisher SCIENTIFIC, MA, USA). After three days, 25 μL of CellTiter-GIo Luminescent cell viability reagent (Promega Corporation, WI, USA) was aliquoted into each well and luminosity was measured with a GloMax plate reader (Promega Corporation, WI, USA).
(§2) At first, the compounds were assayed at high and low concentrations of […], respectively (Table 3).
(§3) Given the promising initial antitrypanosomal action of the compounds, the IC50 was measured in the presence of several concentrations of the compound.

[2] = tested on: T. b. gambiense (Tbg) IL1922; settings: Trypanosoma brucei, mean ± SD; for IC50: 72 h, TbgIL1922, three days; for inhibition at 0.25 µg/mL: TbgIL1922, 0.25 μg/ml; for inhibition at 0.25 µg/mL / inhibition at 25 µg/mL: read-out: Inhibition rate; for inhibition at 25 µg/mL: TbgIL1922, 25 μg/ml
From the text: as §1, §2, §3

[3] = tested on: T. b. rhodesiense (Tbr) IL1501; settings: Trypanosoma brucei, mean ± SD; for IC50: 72 h, TbrIL1501, three days; for inhibition at 0.25 µg/mL: TbrIL1501, 0.25 μg/ml; for inhibition at 0.25 µg/mL / inhibition at 25 µg/mL: read-out: Inhibition rate; for inhibition at 25 µg/mL: TbrIL1501, 25 μg/ml
From the text: as §1, §2, §3

[4] = tested on: T. congolense (Tc) IL3000; settings: Trypanosoma congolense, TcIL3000, mean ± SD; for IC50: 72 h, three days; for inhibition at 0.25 µg/mL: 0.25 μg/ml; for inhibition at 0.25 µg/mL / inhibition at 25 µg/mL: read-out: Inhibition rate; for inhibition at 25 µg/mL: 25 μg/ml
From the text: as §1, §2, §3

[5] = tested on: T. equiperdum (Teq) IVM-t1; settings: Trypanosoma equiperdum, mean ± SD; for inhibition at 0.25 µg/mL: 0.25 μg/ml; for inhibition at 0.25 µg/mL / inhibition at 25 µg/mL: read-out: Inhibition rate; for inhibition at 25 µg/mL: 25 μg/ml; for IC50: 72 h, three days
From the text: as §1, §2, §3

[6] = tested on: T. evansi (Tev) Tansui; settings: Trypanosoma evansi, mean ± SD; for inhibition at 0.25 µg/mL: 0.25 μg/ml; for inhibition at 0.25 µg/mL / inhibition at 25 µg/mL: read-out: Inhibition rate; for inhibition at 25 µg/mL: 25 μg/ml; for IC50: 72 h, three days
From the text: as §1, §2, §3

IC50 [4]: 2.65 ± 0.47 µg/mL (≈ 7.31 µM)
IC50 [5]: 10.3 ± 0.36 µg/mL (≈ 28.4 µM)
IC50 [6]: 13.3 ± 3.36 µg/mL (≈ 36.8 µM)
SMILES: Fc1ccc(-c2cn[nH]c2C2CCCN(c3ncnc4[nH]ccc34)C2)cc1 (stereo not drawn) [Compound 1, 4-{3-[4-(4-fluorophenyl)-1H-pyrazol-5-yl]piperidin-1-yl}-7H-pyrrolo[2,3-d]pyrimidine]
IC50 [1]: 3.53 ± 0.67 µg/mL (≈ 9.74 µM)
inhibition at 0.25 µg/mL [1]: 13.2 ± 4.07%
inhibition at 25 µg/mL [1]: 99.38 ± 0.02%
IC50 [2]: 3.51 ± 0.9 µg/mL (≈ 9.69 µM)
inhibition at 0.25 µg/mL [2]: 2.82 ± 3.98%
inhibition at 25 µg/mL [2]: 99.01 ± 0.01%
IC50 [3]: 5.56 ± 0.13 µg/mL (≈ 15.3 µM)
inhibition at 0.25 µg/mL [3]: 15.9 ± 11.1%
inhibition at 25 µg/mL [3]: 99.34 ± 0.01%
inhibition at 0.25 µg/mL [4]: 8.85 ± 9.99%
inhibition at 25 µg/mL [4]: 98.64 ± 0.16%
inhibition at 0.25 µg/mL [5]: 4.26 ± 6.01%
inhibition at 25 µg/mL [5]: 99.22 ± 0.01%
inhibition at 0.25 µg/mL [6]: 9.14 ± 6.02%
inhibition at 25 µg/mL [6]: 99.1 ± 0.46%

IC50 [4]: 2.77 ± 0.57 µg/mL (≈ 7.62 µM)
IC50 [5]: 9.12 ± 0.8 µg/mL (≈ 25.1 µM)
IC50 [6]: 9.26 ± 1.2 µg/mL (≈ 25.5 µM)
SMILES: Fc1ccc(-c2cn[nH]c2C2CCCN(c3ncnc4[nH]cnc34)C2)cc1 (stereo not drawn) [Compound 2, 6-{3-[4-(4-fluorophenyl)-1H-pyrazol-5-yl]piperidin-1-yl}-9H-purine]
IC50 [1]: 3.66 ± 0.77 µg/mL (≈ 10.1 µM)
inhibition at 0.25 µg/mL [1]: 13.9 ± 3.11%
inhibition at 25 µg/mL [1]: 99.03 ± 0.02%
IC50 [2]: 3.11 ± 0.88 µg/mL (≈ 8.56 µM)
inhibition at 0.25 µg/mL [2]: 1.82 ± 1.45%
inhibition at 25 µg/mL [2]: 98.21 ± 0.02%
IC50 [3]: 4.65 ± 0.25 µg/mL (≈ 12.8 µM)
inhibition at 0.25 µg/mL [3]: 11.3 ± 6.63%
inhibition at 25 µg/mL [3]: 98.64 ± 0.02%
inhibition at 0.25 µg/mL [4]: 8.09 ± 6.96%
inhibition at 25 µg/mL [4]: 98.01 ± 0.2%
inhibition at 0.25 µg/mL [5]: 5.2 ± 4.11%
inhibition at 25 µg/mL [5]: 98.62 ± 0.05%
inhibition at 0.25 µg/mL [6]: 6.14 ± 7.12%
inhibition at 25 µg/mL [6]: 98.7 ± 0.04%
